Source: ChEMBL document CHEMBL1795228, “Air to lung partition coefficients for volatile organic compounds and blood to lung partition coefficients for volatile organic compounds and drugs” (Eur J Med Chem, 2008)

Test: In-vivo plasma to lung partition coefficients of the compound, logP(lung) in rat
Type: ADME, cell-free

SMILES	logP(lung)
O=C(O)c1ccc(-c2ccccc2)cc1	-0.55
CCC1(C)C(=O)NC(=O)NC1=O	-0.21
CCCC1(CC)C(=O)NC(=O)NC1=O	0.16
CCCCCCC1(CC)C(=O)NC(=O)NC1=O	0.08
CCCCCCCC1(CC)C(=O)NC(=O)NC1=O	0.12
CCCCCCCCC1(CC)C(=O)NC(=O)NC1=O	0.49
Nc1cc(Cl)c(S(N)(=O)=O)cc1-c1nnn[nH]1	0.6
CCCCCC1(CC)C(=O)NC(=O)NC1=O	0.22
CC(C)=CCN1CC[C@]2(C)c3cc(O)ccc3C[C@H]1[C@H]2C [(+)-PENTAZOCINE]	1.43
CCC1(CC)C(=O)NC(=O)NC1=O [BARBITAL]	0
CC(C)NCC(O)COc1ccc(CCOCC2CC2)cc1 (stereo unspecified) [BETAXOLOL]	2.29
OC(CCN1CCCCC1)(c1ccccc1)C1CC2C=CC1C2 (stereo unspecified) [BIPERIDEN]	1.79
CC(C)NCC(O)COc1ccc(COCCOC(C)C)cc1 (stereo unspecified) [BISOPROLOL]	1.62
CCCC1O[C@@H]2C[C@H]3[C@@H]4CCC5=CC(=O)C=C[C@]5(C)[C@H]4[C@@H](O)C[C@]3(C)[C@]2(C(=O)CO)O1 (stereo partly specified) [BUDESONIDE]	0.94
CCCCC1(CC)C(=O)NC(=O)NC1=O [BUTETHAL]	0.18
Cc1nnc(SCC2=C(C(=O)O)N3C(=O)[C@@H](NC(=O)Cn4cnnn4)[C@H]3SC2)s1 [CEFAZOLIN]	-0.78
COC(=O)[C@H]1[C@@H](OC(=O)c2ccccc2)C[C@@H]2CC[C@H]1N2C [COCAINE]	1.06
CN1C(=O)CC[C@H]1c1cccnc1 [COTININE]	-0.18
Cc1onc(-c2c(Cl)cccc2Cl)c1C(=O)N[C@@H]1C(=O)N2[C@@H]1SC(C)(C)[C@@H]2C(=O)O [DICLOXACILLIN]	-0.92
COc1cccc2c1C(=O)c1c(O)c3c(c(O)c1C2=O)C[C@@](O)(C(=O)CO)C[C@@H]3O[C@H]1C[C@H](N)[C@H](O)[C@H](C)O1 [DOXORUBICIN]	0.53
CC1(C)[C@@H](O)CC[C@]2(C)[C@H]3C(=O)C=C4[C@@H]5C[C@@](C)(C(=O)O)CC[C@]5(C)CC[C@@]4(C)[C@]3(C)CC[C@@H]12 [ENOXOLONE]	-0.66
CCOc1ccccc1C(N)=O [ETHENZAMIDE]	-0.03
CN1C(=O)NC(=O)C(C)(C2=CCCCC2)C1=O (stereo unspecified) [HEXOBARBITAL]	0.45

SMILES	logP(lung)
CCc1ccc(C(=O)C(C)CN2CCCC2)cc1 (stereo unspecified) [INAPERISONE]	1.52
O=C1Nc2ccc(Cl)cc2C(c2ccccc2Cl)=NC1O (stereo unspecified) [LORAZEPAM]	0.44
COC(=O)C(c1ccccc1)C1CCCCN1 (stereo unspecified) [METHYLPHENIDATE]	1.54
COn1cc(C(=O)O)c(=O)c2cc3c(cc21)OCO3 [MILOXACIN]	-0.29
CCn1cc(C(=O)O)c(=O)c2ccc(C)nc21 [NALIDIXIC ACID]	-0.48
CN1CCC[C@H]1c1cccnc1 [NICOTINE]	0.32
CC1(C)S[C@@H]2[C@H](NC(=O)COc3ccccc3)C(=O)N2[C@H]1C(=O)O [PENICILLIN V]	-0.8
c1ccc(C2(N3CCCCC3)CCCCC2)cc1 [PHENCYCLIDINE]	1.61
CCC1(c2ccccc2)C(=O)NC(=O)NC1=O [PHENOBARBITAL]	-0.08
O=C1NC(=O)C(c2ccccc2)(c2ccccc2)N1 [PHENYTOIN]	-0.1
CC(C)NCC(O)COc1cccc2[nH]ccc12 (stereo unspecified) [PINDOLOL]	1.01
c1cc2ccc3cccc4ccc(c1)c2c34 [PYRENE]	0.35
Cc1nc(Nc2ccc(F)cc2)nc(N2CCc3ccccc3C2C)c1C.Cl (stereo unspecified) [REVAPRAZAN HYDROCHLORIDE]	1.34
O=C(O)c1ccccc1O [SALICYLIC ACID]	-0.72
O=c1[nH]c(=O)n(C2CCCO2)cc1F (stereo unspecified) [TEGAFUR]	-0.59
CN1C(C(=O)Nc2ccccn2)=C(O)c2sccc2S1(=O)=O [TENOXICAM]	-0.49
CN(C/C=C/C#CC(C)(C)C)Cc1cccc2ccccc12 [TERBINAFINE]	0.41
Cn1c(=O)c2[nH]cnc2n(C)c1=O.O [THEOPHYLLINE]	-0.15
CCCC(C)C1(CC)C(=O)NC(=S)NC1=O (stereo unspecified) [THIOPENTAL]	0.08
CSc1ccc2c(c1)N(CCC1CCCCN1C)c1ccccc1S2 (stereo unspecified) [THIORIDAZINE]	1.13
CC(C)(C)NC[C@H](O)COc1nsnc1N1CCOCC1 [TIMOLOL]	1.43
Cc1cccc(OCC(O)CNC(C)C)c1 (stereo unspecified) [TOLIPROLOL]	0.89
CCCC(CCC)C(=O)O [VALPROIC ACID]	-0.38
